Experimental data from patent US20190031599A1, “INDANE DERIVATIVES AS MGLUR7 MODULATORS” (Takeda Pharmaceutical Company Limited, priority 2016, published 2019).

target: T1, human mGluR7 (Homo sapiens, UniProt Q14831); assay: mGluR7 assay: CRE-directed luciferase reporter gene assay, reduction of forskolin stimulated cAMP production; format: cell-based; conditions: stable CHO cell line expressing the CRE-luc reporter and human mGluR7 genes; decrease of forskolin stimulated luminescence; 10-point concentration-response, duplicate wells
T1 construct: expressed in transfected cells
T1 sequence (Q14831 35-915): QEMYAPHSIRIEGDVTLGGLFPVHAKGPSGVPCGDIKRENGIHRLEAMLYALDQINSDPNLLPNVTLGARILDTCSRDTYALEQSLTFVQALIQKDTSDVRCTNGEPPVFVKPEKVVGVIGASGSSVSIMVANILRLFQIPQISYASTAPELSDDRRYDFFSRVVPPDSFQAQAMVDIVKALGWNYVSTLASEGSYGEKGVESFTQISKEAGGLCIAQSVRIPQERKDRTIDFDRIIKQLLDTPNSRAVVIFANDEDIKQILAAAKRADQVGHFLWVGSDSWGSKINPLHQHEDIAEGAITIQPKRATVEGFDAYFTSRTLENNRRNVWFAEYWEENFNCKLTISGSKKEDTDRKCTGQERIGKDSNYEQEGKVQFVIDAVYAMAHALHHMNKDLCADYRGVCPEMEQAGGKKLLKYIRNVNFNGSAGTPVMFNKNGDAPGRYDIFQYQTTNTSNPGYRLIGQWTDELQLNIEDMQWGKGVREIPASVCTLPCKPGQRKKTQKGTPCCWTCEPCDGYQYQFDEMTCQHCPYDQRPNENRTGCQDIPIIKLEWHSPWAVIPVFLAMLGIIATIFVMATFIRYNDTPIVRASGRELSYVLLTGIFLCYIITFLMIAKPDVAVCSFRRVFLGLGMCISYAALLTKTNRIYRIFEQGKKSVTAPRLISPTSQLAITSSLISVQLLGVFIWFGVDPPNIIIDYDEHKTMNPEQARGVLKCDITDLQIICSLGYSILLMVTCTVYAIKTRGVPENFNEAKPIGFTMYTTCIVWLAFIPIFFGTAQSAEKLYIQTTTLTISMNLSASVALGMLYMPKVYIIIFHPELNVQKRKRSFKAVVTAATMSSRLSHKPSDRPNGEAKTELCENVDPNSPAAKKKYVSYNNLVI
Protocol: The ability of the test compounds to activate mGluR7 was determined by their ability to reduce forskolin stimulated cAMP production. Compounds were assessed in a CRE-directed luciferase reporter gene assay, using a stable CHO cell line expressing the CRE-luc reporter and human mGluR7 genes. In this cell line, production of cAMP stimulated the transcription of the luciferase gene and luciferase activity was then measured in a luminescent enzyme assay (Steady Glo assay; Promega E2550). Activation of mGluR7 decreased the forskolin stimulated luminescence signal.
The day prior to the assay, compounds were serially diluted in DMSO (100× final assay concentration (FAC)), in 384-well plates which were then stored in the dark at room temperature (RT) until use. Cells were seeded at 12.5 k/well in white, clear bottom 384-well plates (Corning 3707) and left for one hour at RT followed by an overnight incubation (37° C.). The following day, the DMSO compound plate was diluted 1:20 (5× FAC) in Opti-MEM I (Life Technologies 11058021). The growth media was removed from the cell plate and replaced with 15 μl Opti-MEM I, followed by a 5 μl addition from the 5× compound plate and a fifteen minute incubation (37° C.). Forskolin (Sigma F3917) was then added to the wells (5 μl of 2.5 μM) and the plate was incubated for five hours (37° C.). During this incubation, the Steady Glo Substrate reagent was warmed to 37° C. Aliquots (11 ml; stored at −20° C.) of this reagent were prepared by dissolving the contents of 1 vial of lyophilised substrate in 100 ml Steady-Glo buffer. A 25 μl addition of the substrate was made to all wells and the plate was incubated for thirty minutes at RT, on a plate shaker (300 rpm; in the dark). Luminescence was then measured using the EnVision Multilabel Reader (Perkin Elmer).
Compound activity was examined using a 10-point, half log concentration-response range and each concentration was tested in duplicate wells. Luminescence values were normalised to ‘maximum’ (forskolin alone) and ‘minimum’ (forskolin in the presence of tool mGluR7 agonist) controls.

| Structure (SMILES) | EC50 [nM] |
| --- | --- |
| N[C@H]1c2ccccc2C[C@@H]1NC(=O)C(c1ccc(F)cc1)C1CC1 (single isomer, unassigned) [Example 96] | 54 |
| N[C@H]1c2ccccc2C[C@@H]1NC(=O)C(c1ccc(F)cc1)C1CC1 (single isomer, unassigned) [Example 97] | 807 |
| COC1c2ccccc2CC1NC(=O)[C@@H](NC(=O)C1CC1)c1ccc(F)cc1 (single isomer, unassigned) [Example 101] | 6 |
| COC1c2ccccc2CC1NC(=O)[C@@H](NC(=O)C1CC1)c1ccc(F)cc1 (single isomer, unassigned) [Example 102] | 6 |
| N[C@H]1c2ccccc2C[C@@H]1NC(=O)C(c1ccc(F)cc1F)N1CC(F)C1 (single isomer, unassigned) [Example 106] | 81 |
| N[C@H]1c2ccccc2C[C@@H]1NC(=O)C(c1ccc(F)cc1F)N1CC(F)C1 (single isomer, unassigned) [Example 107] | 1220 |
| N[C@H]1c2ccccc2C[C@@H]1NC(=O)C(c1ccc(F)cc1F)n1ncccc1=O (single isomer, unassigned) [Example 109] | 573 |
| N[C@H]1c2ccccc2C[C@@H]1NC(=O)C(c1ccc(F)cc1F)n1ncccc1=O (single isomer, unassigned) [Example 110] | 1150 |
| N[C@H]1c2ccccc2C[C@@H]1NC(=O)C(c1ccc(F)cc1)N1CC(F)C1 (single isomer, unassigned) [Example 115] | 181 |
| N[C@H]1c2ccccc2C[C@@H]1NC(=O)C(c1ccc(F)cc1)N1CC(F)C1 (single isomer, unassigned) [Example 116] | 241 |
| N[C@H]1c2ccccc2C[C@@H]1NC(=O)C(c1ccc(F)cc1)N1CC(F)C1 (single isomer, unassigned) [Example 117] | 10 |
| N[C@H]1c2ccccc2C[C@@H]1NC(=O)C(c1ccc(F)cc1)N1CC(F)C1 (single isomer, unassigned) [Example 118] | 2870 |
| COC1c2ccccc2CC1NC(=O)C(c1ccc(F)cc1F)n1ncccc1=O (single isomer, unassigned) [Example 124, 2-(2,4-difluorophenyl)-N-(trans)-(1-methoxy-2,3-dihydro-1H-inden-2-yl)-2-(6-oxo-1,6-dihydropyridazin-1-yl)acetamide] | 1050 |
| COC1c2ccccc2CC1NC(=O)C(c1ccc(F)cc1F)n1ncccc1=O (single isomer, unassigned) [Example 125, 2-(2,4-difluorophenyl)-N-(trans)-(1-methoxy-2,3-dihydro-1H-inden-2-yl)-2-(6-oxo-1,6-dihydropyridazin-1-yl)acetamide] | 1070 |
| COC1c2ccccc2CC1NC(=O)C(c1ccc(F)cc1F)n1ncccc1=O (single isomer, unassigned) [Example 126, 2-(2,4-difluorophenyl)-N-(trans)-(1-methoxy-2,3-dihydro-1H-inden-2-yl)-2-(6-oxo-1,6-dihydropyridazin-1-yl)acetamide] | 280 |
| COC1c2ccccc2CC1NC(=O)C(c1ccc(F)cc1F)n1ncccc1=O (single isomer, unassigned) [Example 127, 2-(2,4-difluorophenyl)-N-(trans)-(1-methoxy-2,3-dihydro-1H-inden-2-yl)-2-(6-oxo-1,6-dihydropyridazin-1-yl)acetamide] | 82 |
| COC1c2ccccc2CC1NC(=O)C(c1ccc(F)cc1)n1ncccc1=O (single isomer, unassigned) [Example 128, 2-(4-fluorophenyl)-N-(trans)-(1-methoxy-2,3-dihydro-1H-inden-2-yl)-2-(6-oxo-1,6-dihydropyridazin-1-yl)acetamide] | 1320 |
| COC1c2ccccc2CC1NC(=O)C(c1ccc(F)cc1)n1ncccc1=O (single isomer, unassigned) [Example 129, 2-(4-fluorophenyl)-N-(trans)-(1-methoxy-2,3-dihydro-1H-inden-2-yl)-2-(6-oxo-1,6-dihydropyridazin-1-yl)acetamide] | 3900 |
| COC1c2ccccc2CC1NC(=O)C(c1ccc(F)cc1)n1ncccc1=O (single isomer, unassigned) [Example 130, 2-(4-fluorophenyl)-N-(trans)-(1-methoxy-2,3-dihydro-1H-inden-2-yl)-2-(6-oxo-1,6-dihydropyridazin-1-yl)acetamide] | 148 |
| COC1c2ccccc2CC1NC(=O)C(c1ccc(F)cc1)n1ncccc1=O (single isomer, unassigned) [Example 131, 2-(4-fluorophenyl)-N-(trans)-(1-methoxy-2,3-dihydro-1H-inden-2-yl)-2-(6-oxo-1,6-dihydropyridazin-1-yl)acetamide] | 89 |
| COC1c2ccccc2CC1NC(=O)C(c1ccc(F)cc1F)N1CC(F)C1 (single isomer, unassigned) [Example 136, 2-(2,4-difluorophenyl)-2-(3-fluoroazetidin-1-yl)-N-(trans)-(1-methoxy-2,3-dihydro-1H-inden-2-yl)acetamide] | 1980 |
| COC1c2ccccc2CC1NC(=O)C(c1ccc(F)cc1F)N1CC(F)C1 (single isomer, unassigned) [Example 137, 2-(2,4-difluorophenyl)-2-(3-fluoroazetidin-1-yl)-N-(trans)-(1-methoxy-2,3-dihydro-1H-inden-2-yl)acetamide] | 741 |
| COC1c2ccccc2CC1NC(=O)C(c1ccc(F)cc1F)N1CC(F)C1 (single isomer, unassigned) [Example 138, 2-(2,4-difluorophenyl)-2-(3-fluoroazetidin-1-yl)-N-(trans)-(1-methoxy-2,3-dihydro-1H-inden-2-yl)acetamide] | 14 |
| COC1c2ccccc2CC1NC(=O)C(c1ccc(F)cc1F)N1CC(F)C1 (single isomer, unassigned) [Example 139, 2-(2,4-difluorophenyl)-2-(3-fluoroazetidin-1-yl)-N-(trans)-(1-methoxy-2,3-dihydro-1H-inden-2-yl)acetamide] | 61 |
| COC1c2ccccc2CC1NC(=O)C(c1ccc(F)cc1)N1CC(F)C1 (single isomer, unassigned) [Example 140, 2-(4-fluorophenyl)-2-(3-fluoroazetidin-1-yl)-N-(trans)-(1-methoxy-2,3-dihydro-1H-inden-2-yl)acetamide] | 1270 |
| COC1c2ccccc2CC1NC(=O)C(c1ccc(F)cc1)N1CC(F)C1 (single isomer, unassigned) [Example 141, 2-(4-fluorophenyl)-2-(3-fluoroazetidin-1-yl)-N-(trans)-(1-methoxy-2,3-dihydro-1H-inden-2-yl)acetamide] | 39 |
| COC1c2ccccc2CC1NC(=O)C(c1ccc(F)cc1)N1CC(F)C1 (single isomer, unassigned) [Example 142, 2-(4-fluorophenyl)-2-(3-fluoroazetidin-1-yl)-N-(trans)-(1-methoxy-2,3-dihydro-1H-inden-2-yl)acetamide] | 62 |
| COC1c2ccccc2CC1NC(=O)C(c1ccc(F)cc1)N1CC(F)C1 (single isomer, unassigned) [Example 143, 2-(4-fluorophenyl)-2-(3-fluoroazetidin-1-yl)-N-(trans)-(1-methoxy-2,3-dihydro-1H-inden-2-yl)acetamide] | 1250 |
| COC1c2ccccc2CC1NC(=O)[C@H](NC(=O)C1CC1)c1ccc(F)cc1 (single isomer, unassigned) [Example 144] | 191 |
